Legend:
[1] = target: T1, HA1 adenosine receptor (Homo sapiens, UniProt P30542); experiment: Human adenosine A1 receptor affinity (Ki hA1); type: binding
T1 sequence (P30542 1-326): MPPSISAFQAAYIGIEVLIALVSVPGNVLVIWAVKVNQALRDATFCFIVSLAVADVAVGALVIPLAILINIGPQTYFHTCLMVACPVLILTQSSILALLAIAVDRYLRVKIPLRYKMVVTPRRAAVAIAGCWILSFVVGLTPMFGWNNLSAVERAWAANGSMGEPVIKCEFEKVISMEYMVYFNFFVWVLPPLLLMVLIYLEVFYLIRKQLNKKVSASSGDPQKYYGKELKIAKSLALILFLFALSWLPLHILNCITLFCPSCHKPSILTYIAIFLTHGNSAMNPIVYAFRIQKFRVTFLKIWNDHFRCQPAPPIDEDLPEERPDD

[2] = target: T2, human adenosine A2A receptor (Homo sapiens, UniProt P29274); experiment: Human adenosine A2A receptor [3H]-SCH-58261 binding assay; settings: for selectivity (A1/A2a): ratio KiHA1 divided by KiHA2A; for Ki: recombinant human A2A in CHO cell membranes, [3H]-SCH-58261, Cheng-Prussoff, read-out: Ki hA2A
T2 construct: expressed in transfected cells; host or cells: CHO cells, Semliki Forest virus expression system; membrane preparation
T2 sequence (P29274 whole entry): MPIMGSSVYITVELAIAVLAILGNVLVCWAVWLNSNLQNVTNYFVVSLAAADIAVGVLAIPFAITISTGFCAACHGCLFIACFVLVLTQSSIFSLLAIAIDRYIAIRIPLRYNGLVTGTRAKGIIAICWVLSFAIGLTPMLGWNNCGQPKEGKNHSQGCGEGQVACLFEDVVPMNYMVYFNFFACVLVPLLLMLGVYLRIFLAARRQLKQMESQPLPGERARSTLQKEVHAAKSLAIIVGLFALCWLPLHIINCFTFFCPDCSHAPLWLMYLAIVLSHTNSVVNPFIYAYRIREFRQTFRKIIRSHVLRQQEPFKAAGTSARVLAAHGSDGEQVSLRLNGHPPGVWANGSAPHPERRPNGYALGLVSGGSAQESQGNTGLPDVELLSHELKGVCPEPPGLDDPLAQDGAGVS

Structure (SMILES) | Ki [1] [nM] | selectivity (A1/A2a) [2] | Ki [2] [nM]
C=CCN(C(=O)c1cc(N)n2nc(-c3nccs3)nc2c1)C1CCCC1 [Example 382, 5-Amino-2-thiazol-2-yl-[1,2,4]triazolo[1,5-a]pyridine-7-carboxylic acid allyl-cyclopentyl-amide] | 729 | 13.4 | 54.6
CCN(C(=O)c1cc(N)n2nc(-c3nccs3)nc2c1)C1CCCCC1 [Example 383, 5-Amino-2-thiazol-2-yl-[1,2,4]triazolo[1,5-a]pyridine-7-carboxylic acid cyclohexyl-ethyl-amide] | 1130 | 13.9 | 81.2
COC[C@@H]1CC[C@@H](COC)N1C(=O)c1cc(N)n2nc(-c3ccc(Br)o3)nc2c1 [Example 387, [5 -Amino-2-(5-bromo-furan-2-yl)-[1,2,4]triazolo[1,5-a]pyridin-7-yl]-(S,S-2,5-bis-methoxymethyl-pyrrolidin-1-yl)-methanone] | 2540 | 21.5 | 118
NC(=O)[C@@H]1CCCN1C(=O)c1cc(N)n2nc(-c3ccc(Br)o3)nc2c1 [Example 388, 1-[5-Amino-2-(5-bromo-furan-2-yl)-[1,2,4]triazolo[1,5-a]pyridine-7-carbonyl]-L-pyrrolidine-2-carboxylic acid amide] | 330 | 12.4 | 26.7
NC(=O)[C@@H]1CCCN1C(=O)c1cc(N)n2nc(-c3ccc(Br)o3)nc2c1 [Example 389, 1-[5-Amino-2-(5-bromo-furan-2-yl)-[1,2,4]triazolo[1,5-a]pyridine-7-carbonyl]-D-pyrrolidine-2-carboxylic acid amide] | 383 | 39.1 | 9.8
CN(C)C(=O)C1CCCN1C(=O)c1cc(N)n2nc(-c3ccc(Br)o3)nc2c1 (stereo not drawn) [Example 390, 1-[5-Amino-2-(5-bromo-furan-2-yl)-[1,2,4]triazolo[1,5-a]pyridine-7-carbonyl]-pyrrolidine-2-carboxylic acid dimethylamide] | 813 | 98 | 8.3
CC(=O)NC1CCN(C(=O)c2cc(N)n3nc(-c4ccc(Br)o4)nc3c2)C1 (stereo not drawn) [Example 391, N-{1-[5-Amino-2-(5-bromo-furan-2-yl)-[1,2,4]triazolo[1,5-a]pyridine-7-carbonyl]-pyrrolidin-3-yl}-acetamide] | 1460 | 27.6 | 53
CC(=O)N(C)C1CCN(C(=O)c2cc(N)n3nc(-c4ccc(Br)o4)nc3c2)C1 (stereo not drawn) [Example 392, N-{1-[5-Amino-2-(5-bromo-furan-2-yl)-[1,2,4]triazolo[1,5-a]pyridine-7-carbonyl]-pyrrolidin-3-yl}-N-methyl-acetamide] | 1780 | 51.2 | 34.7
CCC1CCC(C)N(C(=O)c2cc(N)n3nc(-c4ccc(Br)o4)nc3c2)C1 (stereo not drawn) [Example 393, [5-Amino-2-(5-bromo-furan-2-yl)-[1,2,4]triazolo[1,5-a]pyridin-7-yl]-(5-ethyl-2-methyl-piperidin-1-yl)-methanone] | 95.3 | 32.9 | 2.9
NC(=O)C1CCCN(C(=O)c2cc(N)n3nc(-c4ccc(Br)o4)nc3c2)C1 (stereo not drawn) [Example 394, 1-[5-Amino-2-(5-bromo-furan-2-yl)-[1,2,4]triazolo[1,5-a]pyridine-7-carbonyl]-piperidine-3-carboxylic acid amide] | 417 | 37.9 | 11
COCCN(C)C(=O)c1cc(N)n2nc(-c3ccc(Br)o3)nc2c1 [Example 395, 5-Amino-2-(5-bromo-furan-2-yl)-[1,2,4]triazolo[1,5-a]pyridine-7-carboxylic acid (2-methoxy-ethyl)-methyl-amide] | 295 | 44 | 6.7
CCN(CCOC)C(=O)c1cc(N)n2nc(-c3ccc(Br)o3)nc2c1 [Example 396, 5-Amino-2-(5-bromo-furan-2-yl)-[1,2,4]triazolo[1,5-a]pyridine-7-carboxylic acid ethyl-(2-methoxy-ethyl)-amide] | 170 | 48.7 | 3.5
COCCN(C)C(=O)c1cc(N)n2nc(-c3nccs3)nc2c1 [Example 397, 5-Amino-2-thiazol-2-yl-[1,2,4]triazolo[1,5-a]pyridine-7-carboxylic acid (2-methoxy-ethyl)-methyl-amide] | 5490 | 18.4 | 298
COC[C@@H]1CCCN1C(=O)c1cc(N)n2nc(-c3nccs3)nc2c1 [Example 400, (5-Amino-2-thiazol-2-yl-[1,2,4]triazolo[1,5-a]pyridin-7-yl)-(S-2-methoxymethyl-pyrrolidin-1-yl)-methanone] | 4460 | 53.3 | 83.7
COC[C@H]1CCCN1C(=O)c1cc(N)n2nc(-c3nccs3)nc2c1 [Example 401, (5-Amino-2-thiazol-2-yl-[1,2,4]triazolo[1,5-a]pyridin-7-yl)-(R-2-methoxymethyl-pyrrolidin-1-yl)-methanone] | 3440 | 66.4 | 51.9
CCC1CCC(C)N(C(=O)c2cc(N)n3nc(-c4nccs4)nc3c2)C1 (stereo not drawn) [Example 404, (5-Amino-2-thiazol-2-yl-[1,2,4]triazolo[1,5-a]pyridin-7-yl)-(5-ethyl-2-methyl-piperidin-1-yl)-methanone] | 1250 | 13.3 | 94.3
CC(C)CN(CC(C)C)C(=O)c1cc(N)n2nc(-c3nccs3)nc2c1 [Example 405, 5-Amino-2-thiazol-2-yl-[1,2,4]triazolo[1,5-a]pyridine-7-carboxylic acid diisobutylamide] | 1000 | 23.2 | 43.3
CCN(C)C(=O)c1cc(N)n2nc(-c3ccccn3)nc2c1 [Example 406, 5-Amino-2-pyridin-2-yl-[1,2,4]triazolo[1,5-a]pyridine-7-carboxylic acid ethyl-methyl-amide] | 3930 | 26.8 | 147
C#CCN(C)C(=O)c1cc(N)n2nc(-c3ccccn3)nc2c1 [Example 407, 5-Amino-2-pyridin-2-yl-[1,2,4]triazolo[1,5-a]pyridine-7-carboxylic acid methyl-prop-2-ynyl-amide] | 1830 | 26.5 | 69.1
Nc1cc(C(=O)N2CC=CC2)cc2nc(-c3ccccn3)nn12 [Example 408, (5-Amino-2-pyridin-2-yl-[1,2,4]triazolo[1,5-a]pyridin-7-yl)-(2,5-dihydro-pyrrol-1-yl)-methanone] | 1370 | 14.9 | 91.8
C=CCN(C)C(=O)c1cc(N)n2nc(-c3ccccn3)nc2c1 [Example 409, 5-Amino-2-pyridin-2-yl-[1,2,4]triazolo[1,5-a]pyridine-7-carboxylic acid allyl-methyl-amide] | 1650 | 16.5 | 99.8
CC(C)N(C)C(=O)c1cc(N)n2nc(-c3ccccn3)nc2c1 [Example 411, 5-Amino-2-pyridin-2-yl-[1,2,4]triazolo[1,5-a]pyridine-7-carboxylic acid isopropyl-methyl-amide] | 1410 | 22.6 | 62.3
